One series has as its target T1, Cyclooxygenase-1 (Cox-1) (Ovis aries, UniProt P05979).
T1 construct: purchased Cayman Chemical Company 760111
T1 sequence (P05979 25-600): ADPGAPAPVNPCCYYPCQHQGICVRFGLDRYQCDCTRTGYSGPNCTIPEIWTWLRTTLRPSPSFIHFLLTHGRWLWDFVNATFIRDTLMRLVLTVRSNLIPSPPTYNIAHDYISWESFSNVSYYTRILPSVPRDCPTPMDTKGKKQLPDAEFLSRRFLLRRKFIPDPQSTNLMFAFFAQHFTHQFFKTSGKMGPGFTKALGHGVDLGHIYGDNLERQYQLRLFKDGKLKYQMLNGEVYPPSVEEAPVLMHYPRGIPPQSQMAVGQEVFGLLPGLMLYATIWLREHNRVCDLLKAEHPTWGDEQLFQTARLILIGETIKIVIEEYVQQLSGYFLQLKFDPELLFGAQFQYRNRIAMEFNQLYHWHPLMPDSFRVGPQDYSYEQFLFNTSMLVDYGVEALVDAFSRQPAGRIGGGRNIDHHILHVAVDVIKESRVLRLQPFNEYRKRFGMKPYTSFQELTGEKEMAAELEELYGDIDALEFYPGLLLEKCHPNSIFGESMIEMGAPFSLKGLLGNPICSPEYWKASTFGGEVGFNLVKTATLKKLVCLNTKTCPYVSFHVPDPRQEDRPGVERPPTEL
Kind of series: Colorimetric Cox inhibitor screening assay (Cayman), Cox-1. Format: biochemical. How it is done: (§1) Determination of the Effect of the Compounds According to the Invention on Cyclooxygenase-1 and Cyclooxygenase-2 (Cox-1, Cox-2)
(§2) Inhibition of Cox-1 and Cox-2 was determined using the Colorimetric Cox inhibitor screening assay provided by Cayman Chemical Company, Ann Arbor, Mich., USA. (Cat. No. 760111) according to manufacturer's instructions.

The next series deals with Aβ42. As to the kind of experiment: In vivo mouse Aβ42 lowering (brain Aβ42 ELISA). The following applies: oral dose 30 mg/kg, 4 hr time point. From the text: To determine whether acute administration of an Aβ42 lowering agent would reduce Aβ42 levels in vivo, non-transgenic rodents, e.g. mice or rats were used. Alternatively, two to three month old Tg2576 mice expressing APP695 containing the “Swedish” variant can be used or a transgenic mouse model developed by Dr. Fred Van Leuven (K. U. Leuven, Belgium) and co-workers, with neuron-specific expression of a clinical mutant of the human amyloid precursor protein [V717I] (Moechars et al., 1999 J. Biol. Chem. 274, 6483). Young transgenic mice have high levels of Aβ in the brain but no detectable Aβ deposition. At approximately 6-8 months of age , the transgenic mice start to display spontaneous, progressive accumulation of β-amyloid (Aβ) in the brain, eventually resulting in amyloid plaques within the subiculum, hippocampus and cortex. Animals treated with the Aβ42 lowering agent will be examined and compared to those untreated or treated with vehicle and brain levels of soluble Aβ42 and total Aβ would be quantitated by standard techniques, for example, using ELISA. Treatment periods may vary from hours to days and will be adjusted based on the results of the Aβ42 lowering once a time course of onset of effect can be established.
(§3) A typical protocol for measuring Aβ42 lowering in vivo is shown but it is only one of many variations that could be used to optimize the levels of detectable Aβ. For example, Aβ42 lowering compounds as free acids or sodium salts were formulated in 5% of solutol in water or 20% hydroxypropyl β cyclodextrin. The Aβ42 lowering agents are administered as a single oral dose or by any acceptable route of administration e.g., three to four hours before sacrifice, determined empirically, and analysis or alternatively could be given over a course of days and the animals sacrificed three to four hours after the final dose is given.
(§4) The mice are anaesthetized with a mixture of Ketalar (Ketamin), Rompun (Xylazin 2%) and Atropin (2:1:1) and flushed trans-cardially with physiological serum at 4° C. Blood is collected at sacrifice. The blood collection is performed via a heart puncture during anesthesia in EDTA treated collection tubes. Blood is centrifuged at 4000 g for 5 minutes at 4° C. and the plasma recovered and flash frozen for later analysis. The brain is removed from the cranium and hindbrain and forebrain are separated with a cut in the coronal/frontal plane. The cerebellum is removed and retained for quantitative analysis of test compound levels. The forebrain is divided evenly into left and right hemisphere by using a midline sagital cut.
Both hemispheres are immediately immersed in liquid nitrogen and stored at −70° C. until homogenization for biochemical assays. […]
(ELISA stands for enzyme-linked immunosorbent assay.)

The target in a further series is T2, γ-secretase (Homo sapiens, UniProt P49768).
T2 construct: endogenous in cells; host or cells: SKNBE2 cells carrying APP 695 wild type
As to the kind of experiment: WTAPP cell assay Aβ42 (γ-secretase-modulating activity, SKNBE2 cells carrying APP 695 wild type). Format: cell-based. The following applies: for EC50: SKNBE2 cells carrying APP 695 wild type. On the procedure:
Screening of the Compounds of the Invention for γ-Secretase-Modulating Activity
Screening was carried out using SKNBE2 cells carrying the APP 695-wild type, grown in DMEM/NUT-mix F12 (HAM) provided by Gibco (cat no. 31330-38) containing 5% Serum/Fe supplemented with 1% non-essential amino acids.
Cells were grown to near confluency.
The screening was performed using the assay as described in Citron et al (1997) Nature Medicine 3: 67.

A short description of series [1]: Brain and plasma compound concentration in mouse after oral dose. Format: in vivo. The following applies: 30 mg/kg, 30 mpk po. On the procedure:
as §3, §4
Oral dose 30 mg/kg at 4 hr Time Point

The next series has as its target T3, Cyclooxygenase-2 (Cox-2) (Ovis aries, UniProt P79208).
T3 construct: purchased Cayman Chemical Company 760111
T3 sequence (P79208 17-603): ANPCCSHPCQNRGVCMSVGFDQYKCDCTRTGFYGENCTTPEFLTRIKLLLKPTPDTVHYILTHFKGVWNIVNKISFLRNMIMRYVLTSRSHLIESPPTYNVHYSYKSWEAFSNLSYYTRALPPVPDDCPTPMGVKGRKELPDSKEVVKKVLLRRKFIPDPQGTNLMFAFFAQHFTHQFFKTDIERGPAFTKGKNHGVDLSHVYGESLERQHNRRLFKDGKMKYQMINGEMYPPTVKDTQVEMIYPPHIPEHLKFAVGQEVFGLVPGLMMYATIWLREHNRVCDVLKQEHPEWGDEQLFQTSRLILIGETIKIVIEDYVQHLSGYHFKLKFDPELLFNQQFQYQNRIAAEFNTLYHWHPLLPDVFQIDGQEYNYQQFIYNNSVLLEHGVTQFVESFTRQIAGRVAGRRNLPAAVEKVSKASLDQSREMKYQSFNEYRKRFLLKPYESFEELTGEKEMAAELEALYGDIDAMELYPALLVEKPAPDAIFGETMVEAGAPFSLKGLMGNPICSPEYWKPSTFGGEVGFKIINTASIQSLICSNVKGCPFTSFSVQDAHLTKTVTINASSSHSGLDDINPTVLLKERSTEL
Kind of series: Colorimetric Cox inhibitor screening assay (Cayman), Cox-2. Format: biochemical. How it is done: as §1, §2

The mark [2] stands for this setting: brain, read-out: Brain concentration @ 30 mpk po (4 hr).
Setting [3] is: plasma, read-out: Plasma concentration @ 30 mpk po (4 hr).

Where two headings read alike, the source gives them in different places. Where only a bound is given, the exact number is not on record here.

As usually defined, the inhibition is the share of the control response that was lost under treatment. A low value points to a weak effect. As a reminder, the EC50 is the concentration that produces a half-maximal response. Low values mean a more potent agent, high ones a less potent agent. For the compound `CC(C)C[C@@H](C(=O)O)c1cc(OCc2cc(F)cc(F)c2)cc(-c2ccc(C(F)(F)F)cc2)c1` [Compound 1, (R) 2-[5-(3,5-Difluoro-benzyloxy)-4′-trifluoromethyl-biphenyl-3-yl]-4-methyl-pentanoic acid], the inhibition at 100 µM at Cyclooxygenase-1 (Cox-1) and at Cyclooxygenase-2 (Cox-2) was below 50% in each case. The “In vivo mouse Aβ42 efficacy @ 30 mpk (4 hr) inhibition” value in the series with Aβ42 is given as 50%. The compound also gave a concentration giving a half-maximal response (EC50) at γ-secretase of 525 nM. The results for the concentration at 4 h in series [1] (setting [2]) and in series [1] (setting [3]) were 6.9 ± 2.3 µM and 6.9 ± 12.2 µM, respectively.
For `CC(C)C[C@H](C(=O)O)c1cc(OCc2cc(F)cc(F)c2)cc(-c2ccc(C(F)(F)F)cc2)c1` [Compound 2, (S)-2-[5-(3,5-Difluoro-benzyloxy)-4′-trifluoromethyl-biphenyl-3-yl]-4-methyl-pentanoic acid], the “In vivo mouse Aβ42 efficacy @ 30 mpk (4 hr) inhibition” value with Aβ42 was determined as 45%. Also, on γ-secretase, it took 1120 nM to reach a half-maximal effect (EC50). Also, the concentration at 4 h was found to be 11.1 ± 2.8 µM in series [1] (setting [2]) and 11.1 ± 8.9 µM in series [1] (setting [3]).
With `CC(C)C[C@@H](C(=O)O)c1cc(OCc2ccc(F)cc2C(F)(F)F)cc(-c2ccc(C(F)(F)F)cc2)c1` [Compound 3, (R)-2-[5-(4-fluoro-2-trifluoromethyl-benzyloxy)-4′-trifluoromethyl-biphenyl-3-yl]-4-methyl-pentanoic acid], the “In vivo mouse Aβ42 efficacy @ 30 mpk (4 hr) inhibition” value in the series with Aβ42 is 25%. A half-maximal effect at γ-secretase (EC50) was put at 316 nM. The concentration at 4 h was determined as 5.1 ± 1.1 µM in series [1] (setting [2]) and 5.1 ± 2.8 µM in series [1] (setting [3]).
The like results for `CC(C)CC(C(=O)O)c1cc(OCc2cc(F)cc(F)c2)cc(-c2ccc(Cl)c(C(F)(F)F)c2)c1` (stereo not shown) [Compound 4, 2-[4′-Chloro-5-(3,5-difluoro-2-benzyloxy)-3′-trifluoromethyl-biphenyl-3-yl]-4-methyl-pentanoic acid] were, in that order, 42%, 190 nM, 6.5 ± 1.5 µM and 6.5 ± 6.3 µM.
The term IC50 denotes the concentration that gives 50% inhibition. With `CCC[C@H](C(=O)O)c1cc(OCc2ccccc2)cc(-c2ccc(C(F)(F)F)cc2)c1` [reference compound], the IC50 on γ-secretase (comparison compound, read-out: IC50 in the above WTAPP cell assay) worked out at 2500 nM.

The record behind these values is patent publication US7897643B2, “Biphenyl carboxylic acids and derivatives thereof” (Janssen Pharmaceutica N.V., priority 2007, dated 2011).
